Source: patent US11730731B2 (INVENTAGE LAB INC., priority 2021, dated 2023)
Counter-ions that a name gives are not always drawn.

Columns and labels:
p65 NF-κB [1] = assay: Western blotting of NF-κB activity in LPS-treated SW982 cells; format: cell-based, human; details: LPS 1 ug/ml, 0.5, 1, 10, 100 uM, 30 minutes, naltrexone effect at 1 uM
Description: (§1) 1× Cell lysis buffer (Cell signaling, CA, USA) was mixed with protease and a phosphatase inhibitor and added to SW982 cells. After extracting the protein from the cells, the concentration was measured, and the same amount of protein was developed on an SDS-polyacrylamide gel, and transferred to an ECL nitrocellulose membrane (Amersham Pharmacia Biotech, Inc., Piscataway, N.J., USA) and blocked with nonfat dried milk for 1 hour. Thereafter, the reaction was performed with the first antibody (p65 NF-κB, phospho p65 NF-κB or calnexin; Cell signaling, CA, USA), while shaking at 4° C. for 24 hours. Then, after shaking and washing 3 times for 10 minutes with PBST buffer, the secondary antibody was incubated with anti-mouse or anti-rabbit HRP-conjugated secondary antibody for 1 hour at room temperature, and reacted with the protein band on the membrane using Supersignal west pico ECL solution (Thermo Fisher Scientific Inc.). The results were visualized with the Bio-Rad Gel Documentation system (Bio-Rad Laboratories, Hercules, Calif., USA), and the results were shown in FIG. 26.
as §1, with “phospho p65 NF-κB, p-ERK, ERK, p-JNK, JNK, p-p38, p38 or calnexin;” for “phospho p65 NF-κB or calnexin;”, “Scientific Inc.). […]” for “Scientific Inc.). The results were visualized with the Bio-Rad Gel Documentation system (Bio-Rad Laboratories, Hercules, Calif., USA), and the results were shown in FIG. 26.”

[2] = test system: pro-inflammatory cytokines (TNF-α, IL-1β, IL-6, IL-17, iNOS) in Raw 264.7 cells; assay: RT-qPCR of LPS-induced pro-inflammatory cytokine expression in Raw 264.7 cells; details: LPS 1 ug/ml, 0.5, 1, 10, 100 uM, 6 hours
Description: (§4) Lipopolysaccharide (LPS) was purchased from Sigma-Aldrich (St. Louis, Mo., USA).

MAPKs (ERK, JNK, p38) [3] = assay: Western blotting of MAPKs activity in LPS-treated Raw 264.7 cells; format: cell-based, mouse; details: LPS 1 ug/ml, 0.5, 1, 10, 100 uM, 30 minutes
Description: (§2) Western blotting was performed in the same manner as in Example 6.3. The first antibody used at this time is an antibody against p-ERK, ERK, p-JNK, JNK, p-p38, p38 and calnexin (Cell signaling, CA, USA), and the secondary antibody is anti-mouse or anti-rabbit HRP-binding secondary antibody.
Western blotting was performed in the same manner as in Example 7.4.

MAPKs (ERK, JNK, p38) [4] = assay: Western blotting of MAPKs activity in LPS-treated SW982 cells; format: cell-based, human; details: LPS 1 ug/ml, 0.5, 1, 10, 100 uM, 30 minutes, naltrexone effect at 1 uM
Description: as §2
1× Cell lysis buffer (Cell signaling, CA, USA) was mixed with protease and a phosphatase inhibitor and added to SW982 cells. After extracting the protein from the cells, the concentration was measured, and the same amount of protein was developed on an SDS-polyacrylamide gel, and transferred to an ECL nitrocellulose membrane (Amersham Pharmacia Biotech, Inc., Piscataway, N.J., USA) and blocked with nonfat dried milk for 1 hour. Thereafter, the reaction was performed with the first antibody (p65 NF-κB, phospho p65 NF-κB, p-ERK, ERK, p-JNK, JNK, p-p38, p38 or calnexin; Cell signaling, CA, USA), while shaking at 4° C. for 24 hours. Then, after shaking and washing 3 times for 10 minutes with PBST buffer, the secondary antibody was incubated with anti-mouse or anti-rabbit HRP-conjugated secondary antibody for 1 hour at room temperature, and reacted with the protein band on the membrane using Supersignal west pico ECL solution (Thermo Fisher Scientific Inc.). The results were visualized with the Bio-Rad Gel Documentation system (Bio-Rad Laboratories, Hercules, Calif., USA), and the results are shown in FIG. 35.

p65 NF-κB [5] = assay: Western blotting of NF-κB activity in LPS-treated Raw 264.7 cells; format: cell-based, mouse; details: LPS 1 ug/ml, 0.5, 1, 10, 100 uM, 30 minutes
[6] = test system: pro-inflammatory cytokines (TNF-α, IL-1β, IL-6, IL-17, iNOS) in SW982 cells; assay: RT-qPCR of LPS-induced pro-inflammatory cytokine expression in SW982 cells; details: LPS 1 ug/ml, 0.5, 1, 10, 100 uM, 6 hours
Description: as §4

[7] = test system: experimental autoimmune encephalomyelitis (EAE); assay: EAE clinical score in experimental autoimmune encephalomyelitis mice (multiple sclerosis model); format: in vivo; details: Example 5, EAE mouse; Q-DDS 1 mg/mouse sc once on day 3; Fytarex 3 mg/kg oral daily; Revia oral daily; mean±SEM
Description: As an experimental autoimmune encephalomyelitis mouse model (Mouse Experimental Autoimmune Encephalomyelitis: EAE), 6 to 10 week-old female mice of C57BL/6 strain were prepared.
Myelin-oligodendrocyte glycoprotein (MOG) was dissolved in phosphate-buffered saline (PBS) to be 1 mg/mL, and was emulsified by mixing at 1:1 (v/v) with 5 mg/mL Complete Freund's adjuvant. 100 μl of this was subcutaneously injected into both sides of the mouse, and then 400 μl of 2 pg/mL pertussis toxin was intraperitoneally injected (first immunization, day 0). On the second day, 400 μl of 2 μg/mL pertussis toxin was intraperitoneally injected a second time. On the third day after the first immunization, the test was performed by separating the experimental group.
Then, the occurrence and extent of clinical symptoms were regularly observed until the end of the experiment (The 30th day). The clinical symptom level was assigned a score of 0 to 5 after evaluating the functionality of the tail and four legs according to the criteria in Table 34 below, and was used as the EAE clinical score.

[8] = test system: myelin basic protein (MBP); assay: Immunohistochemistry staining of spinal cord with anti-myelin basic protein antibody, EAE mice; format: in vivo; details: day 30, spinal cord IHC, Fytarex 3 mg/kg, Revia 1 mg/kg, Q-DDS 1 mg/mouse
Description: (§3) After mouse euthanasia, spinal cord tissue was extracted, hematoxylin/eosin staining and Luxol Fast Blue staining were performed, and MBP-targeted immunohistochemical staining was performed, and histological evaluation was performed through blind evaluation.
On the 30th day which is the last day of the experiment, mouse was sacrificed, and the mouse spinal cord tissue was extracted and paraffin-embedded slides were prepared and then myelin basic protein (MBP) was stained immunohistochemically, and the spinal cord tissue was photographed at 50 and 200 magnifications. This is to confirm demyelination through immunohistochemical analysis using an antibody against myelin basic protein (MBP), a component of myelin.

[9] = test system: experimental autoimmune encephalomyelitis (EAE); assay: Spinal cord histology, hematoxylin/eosin staining (inflammation score), EAE mice; format: in vivo; details: day 30, spinal cord, Fytarex 3 mg/kg, Revia 1 mg/kg, Q-DDS 1 mg/mouse
Description: as §3
On the 30th day which is the last day of the experiment, mouse was sacrificed, and the mouse spinal cord tissue was extracted and paraffin-embedded slides were prepared and then stained with hematoxylin/eosin, and the spinal cord tissue was photographed at 50 and 200 magnifications. Then, histological scores were measured according to the histological evaluation criteria of Table 36 below to evaluate the distribution of inflammatory cells.

[10] = test system: experimental autoimmune encephalomyelitis (EAE); assay: Spinal cord histology, Luxol Fast Blue staining (demyelination score), EAE mice; format: in vivo, mouse
Description: as §3
On the 30th day which is the last day of the experiment, mouse was sacrificed, and the mouse spinal cord tissue was extracted and paraffin-embedded slides were prepared and then stained with Luxol Fast Blue, and the spinal cord tissue was photographed at 50 and 200 magnifications. In Luxol Fast Blue staining, myelin is stained from blue to green, and nerves are stained purple, and through this, the degree of demyelination was analyzed in the EAE model by confirming the neural structure in the spinal cord. Demyelination was analyzed according to the criteria described in Table 38 below and measured as a score.

## Oc1ccc2c3c1O[C@H]1[C@H](O)CC[C@@]4(O)[C@@H](C2)N(CC2CC2)CC[C@]314 [6β-naltrexol]
p65 NF-κB [1]
  phosphorylation of p65 NF-κB increased by LPS: no inhibitory effect
[2]
  expression of cytokines (iNOS, IL-1β, IL-6, TNF-α) induced by LPS: suppressed at all concentrations
MAPKs (ERK, JNK, p38) [3]
  phosphorylation of MAPKs (ERK1/2, JNK, p38): no inhibitory effect
MAPKs (ERK, JNK, p38) [4]
  phosphorylation of MAPKs (ERK1/2, JNK, p38) increased by LPS: no inhibitory effect
p65 NF-κB [5]
  p65 NF-κB phosphorylation increased by LPS: inhibited
[6]
  expression of cytokines (iNOS, IL-1β, IL-6, TNF-α) induced by LPS: suppressed at all concentrations

## CCCCCCCCc1ccc(CCC(N)(CO)CO)cc1 [Fytarex®, Fingolimod]
[7]
  EAE clinical score: 1.67±0.13

## O=C1CC[C@@]2(O)[C@H]3Cc4ccc(O)c5c4[C@@]2(CCN3CC2CC2)[C@H]1O5 [Revia ®]
[8]
  MBP positive area/total spinal area, Mean: 58.23
[9]
  Inflammation score (histological score), Mean: 1.42
[10]; EAE mice, day 30, spinal cord, Luxol Fast Blue, Fytarex 3 mg/kg, Revia 1 mg/kg, Q-DDS 1 mg/mouse
  Demyelination score (histological score), Mean: 0.61

## O=C1CC[C@@]2(O)[C@H]3Cc4ccc(O)c5c4[C@@]2(CCN3CC2CC2)[C@H]1O5 [Revia®, naltrexone hydrochloride]
[10]; Example 5, EAE mouse, day 30, Q-DDS 1 mg/mouse sc once, Fytarex and Revia oral daily, mean±SEM
  demyelination histological score (Luxol Fast Blue, spinal cord): decrease in histological score and demyelination
